{"source": "patent US11261429B2", "about": "“Enriched and expanded human cord blood stem cells for treatment of hematological disorders” (ICAHN SCHOOL OF MEDICINE AT MOUNT SINAI, priority 2013, dated 2022)", "key": {"[1]": {"test_system": "CD34+CD90+ cells", "test": "Cell cycle analysis by BrdU labeling", "format": "cell-based, human", "description": "The cell cycle status of the cultured CD34+CD90+ cells was assessed using the FITC-BrdU Kit (BD Pharmingen) according to the manufacturer's instructions. CB CD34+ cells cultured for 7 days under control conditions in the presence of VPA were subsequently pulsed with BrdU for 2.5 hours. […] After permeabilization, cells were treated with 30 μg of DNAse for 30 minutes at 37° C. and then stained with an FITC-conjugated anti-BrdU antibody and 7AAD. The cell cycle status of CD34+CD90+ gated cells was then documented using a FAC-SCanto II Flow Cytometer with FACSDiva software (BD Biosciences)."}, "[2]": {"test_system": "HDAC1", "test": "HDAC protein levels in CB-MNCs, Western blot densitometry", "format": "cell-based, human", "settings": "24 hr, SCR 8 μM, C433 80 μM, VPA 1.25 mM"}, "[3]": {"test_system": "HDAC3", "test": "HDAC protein levels in CB-MNCs, Western blot densitometry", "format": "cell-based, human", "settings": "24 hr, SCR 8 μM, C433 80 μM, VPA 1.25 mM", "from_the_text": "(§1) Cellular proteins were separated by SDS-PAGE using Novex (Invitrogen) and transferred by iBlot (Invitrogen). The membranes were probed with mAbs against individual histone deacetylases (HDAC1, HDAC2, HDAC3, HDAC4, HDAC5, HDAC6, and β-actin; Cell Signaling Technology) and developed using a chemiluminescence system with HRP-conjugated secondary antibodies (Amersham Biosciences) according to the manufacturer's instructions."}, "[4]": {"test_system": "HDAC6", "test": "HDAC protein levels in CB-MNCs, Western blot densitometry", "format": "cell-based, human", "settings": "24 hr, SCR 8 μM, C433 80 μM, VPA 1.25 mM", "from_the_text": "as §1"}, "[5]": {"test_system": "class I and II HDAC", "test": "HDAC protein levels in CB-MNCs, Western blot, all HDACs examined", "format": "cell-based, human", "settings": "after 2 hours of treatment", "from_the_text": "as §1"}, "[6]": {"test_system": "CB CD34+ cells", "test": "Effect of siRNA transfection on cell numbers and CD34+/CD34+CD90+ cells", "format": "cell-based, human", "settings": "VPA culture, 72 hrs after transfection", "description": "CB CD34+ cells were treated with VPA under SF culture conditions. VPA-treated cells were transfected with individual SOX2, OCT4, NANOG, GAPDH, and scrambled siRNA or with a combination of SOX2, OCT4, and NANOG Silencer Select siRNAs (Invitrogen, CA). A GFP plasmid was included to determine the transfection efficiency according to the manufacturer's instructions for the Neon transfection system (Invitrogen).\nAfter 72 hours of VPA treatment, cells (0.5×10^6 to 1×10^6) were washed in PBS and suspended in 8 μl of Neon resuspension buffer R. Individual siRNAs (2 μl, 10-30 nM) or a combination of SOX2, OCT4, NANOG (SON), or pcDNA6.2/EmGFP plasmid (200 ng; Invitrogen) were mixed with the 8 μl of cells according to the manufacturer's instructions. Cells were pulsed three times with a voltage of 1,400 and a width of 20 ms and immediately transferred to pre-warmed media supplemented with cytokines plus VPA. […]\nIn addition, cells treated with scrambled or combined SON siRNA were stained using human CD34 and CD90 mAbs, and the percentages of CD34+ and CD34+CD90+ cells were determined by flow cytometric analysis. […] SOX2, OCT4, NANOG, and ZIC3 protein expression levels following SON siRNA-mediated pluripotency gene knockdown were assessed by confocal microscopy as described above."}, "[7]": {"test_system": "NSG mice", "format": "in vivo", "description": "As described previously, NSG mice were sublethally irradiated with 300 cGy 4 hours prior to the infusion of PCs (2×10^5), and CD34+ cells re-isolated after a week of culture under control conditions or cultures containing VPA in the presence or absence of cytokines were injected into NSG mice via the tail vein (Milhem et al., “Modification of Hematopoietic Stem Cell Fate by 5aza 2′deoxycytidine and Trichostatin A,” Blood 103:4102-4110 (2004); Araki et al., “Expansion of Human Umbilical Cord Blood SCID-Repopulating Cells Using Chromatin-Modifying Agents,” Exp. Hematol. 34:140-149 (2006); Araki et al., “Chromatin-Modifying Agents Permit Human Hematopoietic Stem Cells to Undergo Multiple Celt Divisions While Retaining Their Repopulating Potential,” Blood 109:3570-3578 (2007), which are hereby incorporated by reference in their entirety). […] BM cells from each mouse were analyzed for the presence of cells expressing human CD45-PECy7 or APC, CD34-APC or FITC, CD36-APC, CD33-PECy7, CD14-FITC, CD19-PE, CD41-FITC, CD71-FITC, and glycophorin A-PE (GPA-PE). The presence of at least 0.1% human CD45+ cells in the marrow of each recipient mouse was considered indicative of donor human hematopoietic engraftment (Milhem et al., “Modification of Hematopoietic Stem Cell Fate by 5aza 2′deoxycytidine and Trichostatin A,” Blood 103:4102-4110 (2004); Araki et al., “Expansion of Human Umbilical Cord Blood SCID-Repopulating Cells Using Chromatin-Modifying Agents,” Exp. Hematol. 34:140-149 (2006); Araki et al., “Chromatin-Modifying Agents Permit Human Hematopoietic Stem Cells to Undergo Multiple Cell Divisions While Retaining Their Repopulating Potential,” Blood 109:3570-3578 (2007); Chaurasia et al., “Chromatin-Modifying Agents Promote the Ex vivo Production of Functional Human Erythroid Progenitor Cells,” Blood 117:4632-4641 (2011), which are hereby incorporated by reference in their entirety). BM cells (2×10^6) from the primary recipient NSG mice were reinfused into sublethally irradiated secondary NSG recipient mice. Mice were sacrificed 15-16 weeks after transplantation, and BM cells were stained with mAbs and analyzed by flow cytometry for evidence of human chimerism as described above."}, "[8]": {"settings": "VPA alone (no cytokines), SF, 12-13 weeks"}, "[9]": {"settings": "cells cultured with cytokines plus VPA, SF, 13-14 weeks after transplantation"}}, "note": "Several values for one entry are separate records, joined by “and”; a condition that tells them apart may be missing. Equal entries are not always repeated."}
{"smiles": "CCCC(CCC)C(=O)O", "note": "[VPA, valproic acid]", "values": [{"measurement": "percent CD34+CD90+ cells, flow cytometric analysis (FIG. 4A)", "setting": "[1]; SF culture with VPA 7 days, one of 3 representative experiments", "value": 82.9, "unit": "%"}, {"measurement": "CD34+CD90+ cells in G0/G1", "setting": "[1]; day 7, BrdU pulse 2.5 hours", "value": "23.2%±13.8%"}, {"measurement": "CD34+CD90+ cells in G2/M", "setting": "[1]; day 7, BrdU pulse 2.5 hours", "value": "18.0%±1.2%"}, {"measurement": "CD34+CD90+ cells in S phase", "setting": "[1]; day 7, BrdU pulse 2.5 hours", "value": "29.4%±7.9%"}, {"measurement": "HDAC1 expression relative to b-ACTIN (%)", "setting": "[2]", "value": "25.48 ± 7.78", "unit": "%"}, {"measurement": "HDAC3 expression relative to b-ACTIN (%)", "setting": "[3]", "value": "11.4 ± 12.4", "unit": "%"}, {"measurement": "HDAC6 expression relative to b-ACTIN (%)", "setting": "[4]", "value": "54.2 ± 7.9", "unit": "%"}, {"measurement": "inhibition of HDAC expression", "setting": "[5]", "value": "did not inhibit HDAC expression"}, {"measurement": "CD34+CD90+ cells (%)", "setting": "[6]", "value": "78.6 ± 2.0", "unit": "%"}, {"measurement": "Total number of cells/well", "setting": "[6]", "value": "4.0 × 10^6 ± 0.4 × 10^6 cells/well"}, {"measurement": "% Human Cell Engraftment in Primary NSG Mice, CD14", "setting": "[7]; [8]", "value": "2.1 ± 0.2", "unit": "%"}, {"measurement": "% Human Cell Engraftment in Primary NSG Mice, CD19", "setting": "[7]; [8]", "value": "1.9 ± 1.1", "unit": "%"}, {"measurement": "% Human Cell Engraftment in Primary NSG Mice, CD33", "setting": "[7]; [8]", "value": "3.5 ± 0.6", "unit": "%"}, {"measurement": "% Human Cell Engraftment in Primary NSG Mice, CD34", "setting": "[7]; [8]", "value": "1.6 ± 0.4", "unit": "%"}, {"measurement": "% Human Cell Engraftment in Primary NSG Mice, CD41", "setting": "[7]; [8]", "value": "0.90 ± 0.6", "unit": "%"}, {"measurement": "% Human Cell Engraftment in Primary NSG Mice, CD45", "setting": "[7]; [8]", "value": "12.5%±5.0% and 12.5 ± 2.2%"}, {"measurement": "% Human Cell Engraftment in Primary NSG Mice, GPA", "setting": "[7]; [8]", "value": "9.8 ± 0.8", "unit": "%"}, {"measurement": "CD45+CD34+ cells in marrow of primary NSG mice", "setting": "[7]; [9]", "value": "13.0%±8.7%"}, {"measurement": "human CD45+ cell chimerism in marrow of primary NSG mice", "setting": "[7]; [9]", "value": "32.2%±11.3% and 32.3±10.2%"}, {"measurement": "donor-derived CD34+ cells coexpressing CD184 in marrow", "setting": "[7]; cells cultured with cytokines plus VPA, SF, primary NSG mice", "value": "9.9%±9.6%"}, {"measurement": "blood cancer or teratomas in primary or secondary recipients", "setting": "[7]; mouse, in vivo", "value": "None of the primary or secondary recipients of marrow cells receiving VPA-treated grafts developed evidence of blood cancer or developed teratomas"}]}
